Laboratory results published in US20080070866A1, “Chemical compounds” (Praecis Pharmaceuticals Incorporated, priority 2006, published 2008).

Target: T1, S1P-1 receptor (Homo sapiens, UniProt P21453)
T1 construct: expressed in transfected cells; host or cells: HEK 293 T cells (membrane preparation)
Assay: [33P]sphingosine 1-phosphate binding assay on membranes of transfected HEK 293 T cells
Details: [33P]S1P binding, receptor taken from context of b294
Procedure: In certain embodiments, the compounds of the invention selective for the S1P-1 receptor as compared to one or more of the other S1P receptors. For example, one set of compounds includes compounds which are selective for the S1P-1 receptor relative to the S1P-3 receptor. […] The EC50 of a compound is determined using the ^35S-GTPγS binding assay, as described in WO 03/061567, the entire contents of which are incorporated herein by reference. […] The IC50 of a compound is determined using the [^33P]sphingosine 1-phosphate binding assay, as described in Davis, M. D. et al., Sphingosine 1-Phosphate Analogs as Receptor Antagonists. J. Biol. Chem. (2005) 280:9833-9841, the entire contents of which are incorporated herein by this reference.
The terms “agonist” or “S1P-1 receptor agonist” as used herein include the compounds described herein which bind to and/or agonize the S1P-1 receptor. […] The compounds' IC50 for the S1P1 receptor can be measured using the binding assays described in Example 13 or those described in WO 03/061567.
The ability of several of the compounds described herein to bind to the S1P-1 or S1P-3 receptor was also tested as follows.
For the membrane preparation, plasmid DNA was transfected into HEK 293 T cells using the FuGENE 6 transfection protocol (publicly available from Roche). […] Protein concentration was determined spectroscopically by Bradford protein assay. […]

T1 sequence (P21453 whole entry): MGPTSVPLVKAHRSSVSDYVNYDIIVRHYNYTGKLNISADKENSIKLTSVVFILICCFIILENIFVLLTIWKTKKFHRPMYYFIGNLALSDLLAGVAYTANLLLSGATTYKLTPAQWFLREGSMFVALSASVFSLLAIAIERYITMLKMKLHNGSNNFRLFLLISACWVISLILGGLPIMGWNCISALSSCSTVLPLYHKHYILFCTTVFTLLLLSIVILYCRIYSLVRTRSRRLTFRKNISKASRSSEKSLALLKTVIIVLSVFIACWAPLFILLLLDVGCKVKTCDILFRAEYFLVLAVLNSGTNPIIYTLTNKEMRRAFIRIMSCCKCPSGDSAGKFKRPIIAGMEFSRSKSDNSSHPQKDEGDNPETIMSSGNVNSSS

- IC50: 2.17 nM
SMILES: CCCCCOCCOc1ccc(-c2nnc([C@@](C)(N)CO)s2)cc1C(F)(F)F
